Like-named read-outs stand apart in the source and are kept apart here.
What was measured:
HIV-1 [1] = assay: Inhibition of infecting HIV production in MT4 cells (end point titration); assay type: cell-based; conditions: for EC90: read-out: ED90 (the source's name); for enhancement of the anti-HIV-1 activity of ddAdo (10 µM): compound used at its MNTD together with ddAdo 10 µM, Fig. 1
Method: (§1) The cellular lines utilized in this study were: H9, T lymphocytes, CD4+, permissive for the HIV replication but partially resistant to its cytopathic effect; • H9/IIIB, H9 lymphocytes chronically infected by HTLV/IIIB virus; • MT4 and C8166, T lymphocytes lines, CD4+ permissive for HIV replication. In C8166 the virus induces a cytopathic effect which results in the formation of syncytia easily visible at the optical microscope.
(§2) All the lymphoid lines were cultured in RPMI 1640 containing 10 % of non decomplemented fetal calf serum (FCS), penicillin 100U/mL and streptomycin 100 µg/mL and incubated at 37 °C in 5% CO₂.
(§3) HIV virus was obtained by H9/IIIB cells surnatant taken at the end of their exponential growth.
(§4) The titre of several stock preparations was comprised between 2 and 5 x 10⁵ Cell Culture Infection Dose 50 (CCID50)/mL.
(§5) For the evaluation of the anti-HIV activity the inhibition of infecting HIV production was determined as follows.
(§6) C8166 or MT4 cells sown at a density of 1 x 10⁶ cells/ml, were infected with a multiplicity of infection (m.o.i.) comprised between 0.05 and 0.02 CCID50/cell. After two hours of incubation at 37 °C and subsequent removal of the inoculum, the cells were washed three times and resuspended at a density of 1 x 10⁵ cells/ml. in the absence or in the presence of the compounds to be investigated.
(§7) After 4 days of incubation at 37 °C the presence of syncytia was evaluated at the optical microscope and the quantity of infecting HIV present in the surnatant of the cultures was determined by end point titration.
(§8) HIV titration was carried out in C8166 cells sown at a density of 1 x 10⁵ cells/mL/well, by the limit dilution method (dilution ratio 1:2, every dilution being sown in quadruplicate).
(§9) After four days of incubation, the syncytia presence was evaluated at the microscope and the viral titre was calculated by the Reed and Muench method.

[2] = Cytotoxicity evaluation (cell number in Coulter after 96 hours); assay type: cell-based; conditions: human
Method: as §1, §2
(§10) For the cytotoxicity evaluation, the cells were resuspended in a culture medium at a density of 1 x 10⁵/mL, were incubated in the absence or in the presence of various concentration of the compounds to be studied and their number was determined in Coulter after 96 hours of incubation at 37 °C.

HIV-1 [3] = assay: Inhibition of infecting HIV production in C8166 cells (end point titration); assay type: cell-based; conditions: for EC90: read-out: ED90 (the source's name)
Method: as §1, §2, §3, §4, §5, §6, §7, §8, §9

human T lymphocytes = conditions: G. Ahluwalia et al. 1987; cited from earlier work
MT4 cells = assay: Cytotoxicity evaluation (cell number in Coulter after 96 hours); assay type: cell-based
Method: as §1, §2, §10

C8166 cells = assay: as above; assay type: cell-based; conditions: C8166 cells; concentrations up to 500 µM
Method: as §1, §2, §10

[4] = MT4 cells, compound alone, Table 2
[5] = C8166 cells, compound alone, Table 2
[6] = c8166 cells, maxima non cytotoxic doses (MNTD)
[7] = mt4 cells, maxima non cytotoxic doses (MNTD)
[8] = ddAdo alone (EHNA absent), C8166, Table 3
[9] = ddAdo alone (Coformycin absent), MT4, Table 4
[10] = ddAdo alone (desoxycoformycin absent), MT4, Table 5
[11] = ddAdo with Coformycin 0.02 (unit not given), MT4
[12] = ddAdo with Coformycin 0.06 (unit not given), MT4
[13] = ddAdo with Coformycin 0.2 (unit not given), MT4
[14] = ddAdo with Coformycin 0.5 (unit not given), MT4
[15] = ddAdo with Coformycin 1.6 (unit not given), MT4
[16] = ddAdo with Coformycin 5 (unit not given), MT4
[17] = ddAdo with Coformycin 15 (unit not given), MT4
[18] = ddAdo with Coformycin 45 (unit not given), MT4
[19] = ddAdo with desoxycoformycin 0.05 (unit not given), MT4
[20] = ddAdo with desoxycoformycin 0.5 (unit not given), MT4
[21] = ddAdo with desoxycoformycin 5 (unit not given), MT4
[22] = ddAdo with desoxycoformycin 50 (unit not given), MT4
[23] = MT4 cells, concentrations up to 500 µM

CCCCCC[C@H]([C@H](C)O)n1cnc2c(N)cccc21 (relative stereo) [1,3-dideaza-EHNA]
EC90 (HIV-1 [1]; [4]): > 5 µM
CC50 at 96 h ([2]; mt4 cells): 15 µM
MNTC at 96 h ([2]; mt4 cells, MNTD): 5 µM

CCCCCC[C@H]([C@H](C)O)n1ccc2c(N)ncnc21 (relative stereo) [7-deaza-EHNA]
EC90 (HIV-1 [1]; [4]): > 5 µM
CC50 at 96 h ([2]; mt4 cells): 50 µM
MNTC at 96 h ([2]; mt4 cells, MNTD): 5 µM

OC[C@H]1O[C@@H](n2cnc3c2N=CNC[C@H]3O)[C@H](O)[C@@H]1O [CF, coformycin]
EC90 (HIV-1 [3]; [5]): > 250 µM
lowest concentration enhancing ddAdo anti-HIV activity, relative to its MNTD (HIV-1 [1]; CF with ddAdo, MT4): more than 12500 times lower
EC90 (HIV-1 [1]; [4]): > 250 µM
CC50 at 96 h ([2]; c8166 cells): > 250 µM
MNTC at 96 h ([2]; c8166 cells, MNTD): > 250 µM
CC50 at 96 h ([2]; mt4 cells): > 250 µM
MNTC at 96 h ([2]; mt4 cells, MNTD): > 250 µM
MCC at 96 h ([2]; cell line not specified, read-out: cytotoxic concentration): 250 µM

OC[C@@H]1CC[C@H](n2cnc3c(O)ncnc32)O1 [ddIno, 2',3'-didesoxy-inosine, reference compound]
EC90 (HIV-1 [3]; [5]): 28 µM
entry into the cells, less efficient than that of ddAdo (human T lymphocytes): 4-6 time
EC90 (HIV-1 [1]; [4]): 11 µM
CC50 at 96 h ([2]; c8166 cells): > 1000 µM
MNTC at 96 h ([2]; c8166 cells, MNTD): > 1000 µM
MNTC at 96 h [2, 6]: ≥ 1000 µM
CC50 at 96 h ([2]; mt4 cells): > 1000 µM
MNTC at 96 h ([2]; mt4 cells, MNTD): > 1000 µM
MNTC at 96 h [2, 7]: ≥ 1000 µM

CCCCCC[C@H]([C@H](C)O)n1cnc2c(N)ccnc21 (relative stereo) [1-deaza-EHNA]
EC90 (HIV-1 [1]; [4]): 20 µM
CC50 at 96 h ([2]; mt4 cells): 75 µM
MNTC at 96 h ([2]; mt4 cells, MNTD): 20 µM

CCCCCC[C@H]([C@H](C)O)n1cnc2c(N)ncnc21 (relative stereo) [EHNA, 9-(erythro-2-hydroxy-3-nonyl) adenine]
EC90 (HIV-1 [3]; [5]): > 15 µM
lowest concentration enhancing ddAdo anti-HIV activity, relative to its MNTD (HIV-1 [3]; EHNA with ddAdo, C8166): 250 times lower
EC90 (HIV-1 [1]; [4]): > 10 µM
enhancement of the anti-HIV-1 activity of ddAdo (10 µM) (HIV-1 [1]; MT4 cells): highest enhancing effect
CC50 at 96 h ([2]; c8166 cells): 25 µM
MNTC at 96 h ([2]; c8166 cells, MNTD): 15 µM
CC50 at 96 h ([2]; mt4 cells): 35 µM
MNTC at 96 h ([2]; mt4 cells, MNTD): 10 µM

CCCCCC[C@H]([C@H](C)O)n1cnc2c(N)nccc21 (relative stereo) [3-deaza-EHNA]
EC90 (HIV-1 [1]; [4]): > 10 µM
enhancement of the anti-HIV-1 activity of ddAdo (10 µM) (HIV-1 [1]; MT4 cells): highest enhancing effect
CC50 at 96 h ([2]; mt4 cells): 30 µM
MNTC at 96 h ([2]; mt4 cells, MNTD): 10 µM

Nc1ncnc2c1ncn2[C@H]1CC[C@@H](CO)O1 [ddAdo, 2',3'-didesoxyadenosine]
EC90 (HIV-1 [3]; [5]): 25 µM
ED99 (HIV-1 [3]; [8]): 39.0 µM
ED99.9 (HIV-1 [3]; [8]): 61.0 µM
ED99 (HIV-1 [3]; ddAdo with EHNA 0.06 µM, C8166): 30.5 µM
ED99.9 (HIV-1 [3]; ddAdo with EHNA 0.06 µM, C8166): 52.0 µM
EC90 (HIV-1 [3]; ddAdo with EHNA 0.06 µM, C8166): 10.5 µM
ED99 (HIV-1 [3]; ddAdo with EHNA 0.2 µM, C8166): 18.0 µM
ED99.9 (HIV-1 [3]; ddAdo with EHNA 0.2 µM, C8166): 42.5 µM
EC90 (HIV-1 [3]; ddAdo with EHNA 0.2 µM, C8166): 7.5 µM
ED99 (HIV-1 [3]; ddAdo with EHNA 0.5 µM, C8166): 14.5 µM
ED99.9 (HIV-1 [3]; ddAdo with EHNA 0.5 µM, C8166): 34.5 µM
EC90 (HIV-1 [3]; ddAdo with EHNA 0.5 µM, C8166): 6.5 µM
ED99 (HIV-1 [3]; ddAdo with EHNA 1.6 µM, C8166): 11.5 µM
ED99.9 (HIV-1 [3]; ddAdo with EHNA 1.6 µM, C8166): 25.5 µM
EC90 (HIV-1 [3]; ddAdo with EHNA 1.6 µM, C8166): 5 µM
ED99 (HIV-1 [3]; ddAdo with EHNA 5 µM, C8166): 10.0 µM
ED99.9 (HIV-1 [3]; ddAdo with EHNA 5 µM, C8166): 23.5 µM
EC90 (HIV-1 [3]; ddAdo with EHNA 5 µM, C8166): 3.5 µM
ED99 (HIV-1 [3]; ddAdo with EHNA 15 µM, C8166): 7.5 µM
ED99.9 (HIV-1 [3]; ddAdo with EHNA 15 µM, C8166): 17.5 µM
EC90 (HIV-1 [3]; ddAdo with EHNA 15 µM, C8166): 3 µM
EC90 (HIV-1 [1]; [4]): 10 µM
ED99 (HIV-1 [1]; [9]): 19.0 µM
ED99.9 (HIV-1 [1]; [9]): 32.0 µM
EC90 (HIV-1 [1]; [9]): 11 µM
ED99 (HIV-1 [1]; [10]): 14.3 µM
ED99.9 (HIV-1 [1]; [10]): 23.8 µM
EC90 (HIV-1 [1]; [10]): 4.8 µM
EC90 (HIV-1 [1]; ddAdo with Coformycin 0.02 (unit inferred), MT4): 4 µM
ED99 (HIV-1 [1]; [11]): 7.6 µM
ED99.9 (HIV-1 [1]; [11]): 13.7 µM
ED99 (HIV-1 [1]; [12]): 7.1 µM
ED99.9 (HIV-1 [1]; [12]): 12.5 µM
ED99 (HIV-1 [1]; [13]): 5.0 µM
ED99.9 (HIV-1 [1]; [13]): 8.0 µM
EC90 (HIV-1 [1]; ddAdo with Coformycin 0.5 (unit inferred), MT4): 3.6 µM
ED99 (HIV-1 [1]; [14]): 5.0 µM
ED99.9 (HIV-1 [1]; [14]): 8.0 µM
EC90 (HIV-1 [1]; ddAdo with Coformycin 1.6 (unit inferred), MT4): 2.5 µM
ED99 (HIV-1 [1]; [15]): 4.5 µM
ED99.9 (HIV-1 [1]; [15]): 7.5 µM
EC90 (HIV-1 [1]; ddAdo with Coformycin 5 (unit inferred), MT4): 2 µM
ED99 (HIV-1 [1]; [16]): 4.0 µM
ED99.9 (HIV-1 [1]; [16]): 7.5 µM
EC90 (HIV-1 [1]; ddAdo with Coformycin 15 (unit inferred), MT4): 1.5 µM
ED99 (HIV-1 [1]; [17]): 3.5 µM
ED99.9 (HIV-1 [1]; [17]): 7.5 µM
EC90 (HIV-1 [1]; ddAdo with Coformycin 45 (unit inferred), MT4): 1 µM
ED99 (HIV-1 [1]; [18]): 2.5 µM
ED99.9 (HIV-1 [1]; [18]): 7.0 µM
ED99 (HIV-1 [1]; [19]): 8.0 µM
ED99.9 (HIV-1 [1]; [19]): 14.4 µM
EC90 (HIV-1 [1]; ddAdo with desoxycoformycin 0.5 (unit inferred), MT4): 1.3 µM
ED99 (HIV-1 [1]; [20]): 7.8 µM
ED99.9 (HIV-1 [1]; [20]): 14.2 µM
EC90 (HIV-1 [1]; ddAdo with desoxycoformycin 5 (unit inferred), MT4): 1.1 µM
ED99 (HIV-1 [1]; [21]): 6.2 µM
ED99.9 (HIV-1 [1]; [21]): 11.2 µM
EC90 (HIV-1 [1]; ddAdo with desoxycoformycin 50 (unit inferred), MT4): 0.9 µM
ED99 (HIV-1 [1]; [22]): 3.8 µM
ED99.9 (HIV-1 [1]; [22]): 6.7 µM
MNTC (MT4 cells; human, mt4 cells, 96 h): 1 mM
CC50 at 96 h ([2]; c8166 cells): > 1000 µM
MNTC at 96 h ([2]; c8166 cells, MNTD): > 1000 µM
MNTC at 96 h [2, 6]: ≥ 1000 µM
CC50 at 96 h ([2]; mt4 cells): > 1000 µM
MNTC at 96 h ([2]; mt4 cells, MNTD): > 1000 µM
MNTC at 96 h [2, 7]: ≥ 1000 µM
MNTC at 96 h ([2]; mt4 cells, in association with 15 µM of EHNA, Fig. 2, read-out: MNTD of ddAdo): 60 µM
MNTC at 96 h ([2]; mt4 cells, in association with 125 µM of CF, Fig. 3, read-out: MNTD of ddAdo): 60 µM

OC[C@H]1O[C@@H](n2cnc3c2NC=NC[C@H]3O)C[C@@H]1O [dCF, desoxycoformycin]
anti-HIV-1 activity (HIV-1 [3]; C8166 cells, concentrations up to 500 µM): without any anti-HIV-1 activity
anti-HIV-1 activity (HIV-1 [1]; [23]): without any anti-HIV-1 activity
lowest concentration enhancing ddAdo anti-HIV activity, relative to its MNTD (HIV-1 [1]; dCF with ddAdo, MT4): more than 10,000 times lower
toxicity (MT4 cells; [23]): non toxic
toxicity (C8166 cells): non toxic

Source: patent EP0509470A2, “Therapeutical compositions having anti-HIV activity consisting of 2',3'-didesoxyadenosine and substances inhibiting adenosine deaminase” (REPLA CHEMICAL LTD., priority 1991, dated 1992)
